US8652787B2, “Use of ERBB4 as a prognostic and therapeutic marker for melanoma” (The United States of America, as represented by the …, priority 2008, dated 2014)
“Also recorded” adds a separate entry of the source.

What was measured:
[1] = test system: melanoma cell lines harboring mutant ERBB4; assay: Growth inhibition of melanoma cell lines by lapatinib (72 h, methylene blue staining / SYBR Green I); format: cell-based, human
Description: (§1) Cells were treated for 72 hours in the presence of increasing concentrations (0.01-30 μM) of lapatinib, and relative cell number was estimated by methylene blue protein staining and plotted as percent survival when compared to vehicle-treated control versus Log (lapatinib) nM (where 1 is 10 nM lapatinib). Fitted lines were generated using 4-parameter nonlinear regression via GraphPad Prism. […] The IC50 values for inhibition of cell growth by 72 hour treatment with lapatinib of a larger panel of lines harboring WT and mutant ERBB4 were analyzed using GraphPad Prism v.5 (n=3). (C) Immunoprecipitation and western blot analysis of ERBB4 autophosphorylation in cells treated with lapatinib. Cells were treated for 1 hour with lapatinib or vehicle alone as control. […] The activity of ERBB4, AKT and ERBB2 was determined by immunoblotting with phospho-specific antibodies. […] Lysates and immunoprecipitates were analyzed by western blotting using the indicated antibodies. […] (E) Quantitative assessment of data from 2 cell lines harboring WT ERBB4 and 3 cell lines harboring mutant ERBB4 that were performed similarly to (D). […] (G) Quantitation of FACS-sorted lapatinib-treated cells. The percent apoptotic cells were determined based on the sub-G1 population for vehicle-treated cells or lapatinib-treated cells.

ERBB4 (P-Y1162) = assay: Immunoprecipitation and western blot of ERBB4 autophosphorylation in lapatinib-treated melanoma cells; format: cell-based, human
Description: as §1

AKT (P-S473) = assay: Western blot of AKT phosphorylation in lapatinib-treated melanoma cells; format: cell-based, human; conditions: 1 hour, 5 μM lapatinib
Description: as §1

ERBB2 (P-Y1248) = ERBB2 (P-Y1248) (Homo sapiens, UniProt P04626); assay: Immunoprecipitation and western blot of ERBB2 phosphorylation in lapatinib-treated melanoma cells; format: cell-based; conditions: 1 hour, 5 μM lapatinib
Description: as §1

ERK1 and ERK2 = assay: Western blot of ERK1/2 phosphorylation in lapatinib-treated melanoma cells; format: cell-based, human; conditions: 72 hours, 5 μM lapatinib; P-ERK1/ERK1, P-ERK2/ERK2
Description: FIG. 14: Effect of lapatinib in ERK1/2 signaling pathways. […] Cells were treated for 72 hours with 5 μM lapatinib or vehicle as control. The activity of ERK1 and ERK2 was determined by immunoblotting with phospho-specific antibodies. Total ERK protein was also determined by immunoblotting. Shown are representative blots. (B) Quantitative assessment of data from one melanoma cell line harboring mutant ERBB4. The ratio of band intensities of P-ERK1/ERK1 or P-ERK2/ERK2 was analyzed for each melanoma cell line.
Transfected cells were washed 3× in PBS and lysed using 0.5 ml 1% NP-40 lysis buffer (1% NP-40, 50 mM Tris-HCl pH 7.5, 150 mM NaCl, complete protease inhibitor tablet, EDTA-free (Roche, Indianapolis, Ind.), 1 μM sodium orthovanadate, 1 mM sodium fluoride, and 0.1% β-mercaptoethanol) per T-75 flask for 20 minutes on ice. Lysed cells were scraped and transferred into a 1.5 mL microcentrifuge tube. Extracts were centrifuged for 10 minutes at 14,000 rpm at 4° C. […]
Scanned films from western blot analysis of SDS-PAGE were analyzed using ImageJ (NIH software). Individual bands were quantitated and plots were generated to determine the intensities in each band. The data was then exported to Microsoft Excel and analyzed further for phospho:total ratios of protein.

[2] = test system: melanoma cells harboring mutant ERBB4 or WT ERBB4; assay: Flow cytometry (PI staining) of the sub-G1 apoptotic population after lapatinib; format: cell-based, human; conditions: 72 hours, 5 μM lapatinib, FACS
Description: as §1

ERBB2 (P-Y1248), sequence (P04626 23-1255): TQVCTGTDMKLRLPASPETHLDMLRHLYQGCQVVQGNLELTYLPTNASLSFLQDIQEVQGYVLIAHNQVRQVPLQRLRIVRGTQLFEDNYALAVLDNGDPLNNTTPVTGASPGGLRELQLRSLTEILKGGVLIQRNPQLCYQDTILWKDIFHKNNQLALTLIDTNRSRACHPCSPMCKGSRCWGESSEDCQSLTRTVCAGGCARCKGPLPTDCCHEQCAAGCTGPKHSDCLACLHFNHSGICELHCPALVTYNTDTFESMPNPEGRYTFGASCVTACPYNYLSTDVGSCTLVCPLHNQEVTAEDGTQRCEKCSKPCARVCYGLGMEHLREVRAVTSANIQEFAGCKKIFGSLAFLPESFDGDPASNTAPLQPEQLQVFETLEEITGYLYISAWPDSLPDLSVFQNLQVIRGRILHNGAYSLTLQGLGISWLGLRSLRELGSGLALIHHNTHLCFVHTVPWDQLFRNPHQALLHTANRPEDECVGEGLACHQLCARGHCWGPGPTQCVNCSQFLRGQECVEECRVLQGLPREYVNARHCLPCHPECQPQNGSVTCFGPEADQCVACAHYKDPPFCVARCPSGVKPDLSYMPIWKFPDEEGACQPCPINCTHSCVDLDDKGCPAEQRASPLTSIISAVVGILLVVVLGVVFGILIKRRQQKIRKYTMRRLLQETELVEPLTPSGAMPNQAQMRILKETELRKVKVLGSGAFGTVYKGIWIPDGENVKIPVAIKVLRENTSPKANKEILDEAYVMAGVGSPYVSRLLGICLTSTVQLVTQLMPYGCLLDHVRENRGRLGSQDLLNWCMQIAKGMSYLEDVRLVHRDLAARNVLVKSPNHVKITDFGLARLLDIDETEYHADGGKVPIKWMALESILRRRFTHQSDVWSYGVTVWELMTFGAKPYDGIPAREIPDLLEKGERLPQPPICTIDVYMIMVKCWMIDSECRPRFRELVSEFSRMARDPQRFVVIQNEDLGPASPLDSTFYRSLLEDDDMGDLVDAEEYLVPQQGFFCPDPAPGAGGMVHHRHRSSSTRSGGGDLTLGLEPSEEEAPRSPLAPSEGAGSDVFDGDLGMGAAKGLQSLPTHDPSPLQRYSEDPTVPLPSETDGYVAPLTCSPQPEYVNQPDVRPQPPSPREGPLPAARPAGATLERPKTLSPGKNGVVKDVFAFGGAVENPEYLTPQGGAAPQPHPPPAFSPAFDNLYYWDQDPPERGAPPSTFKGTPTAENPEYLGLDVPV

fold greater sensitivity to lapatinib (from IC50) of melanoma cells harboring ERBB4 mutations than cells with WT receptor ([1]; IC50 for inhibition of cell growth, 72 hour treatment, n=3): 10- to 250 fold
inhibition of ERBB2 in melanoma cell lines (ERBB2 (P-Y1248)): No inhibition
SMILES: CS(=O)(=O)CCNCc1ccc(-c2ccc3ncnc(Nc4ccc(OCc5cccc(F)c5)c(Cl)c4)c3c2)o1 [lapatinib]
reduction of cell proliferation / sensitivity to lapatinib, ERBB4 mutant versus WT ERBB4 melanoma cells ([1]; 72 hours, 0.01-30 μM lapatinib, compared with cells containing endogenous WT ERBB4): increased sensitivity to lapatinib compared to WT ERBB4 cell lines; also recorded: reduced cell proliferation to a greater extent in cells containing endogenous ERBB4 mutations
inhibition of ERBB4 activation in cells harboring mutant ERBB4 (ERBB4 (P-Y1162); 1 hour, 5 μM lapatinib, (P-Y1162)-ERBB4/ERBB4): specific inhibition of ERBB4 and AKT activation
inhibition of ERBB4 receptor autophosphorylation (ERBB4 (P-Y1162); cells treated for 1 hour with lapatinib, α-P-ERBB4 (Y1162)): inhibited receptor autophosphorylation in a dose-dependent manner
inhibition of AKT activation in cells harboring mutant ERBB4 (AKT (P-S473)): specific inhibition of ERBB4 and AKT activation
inhibition of ERK activation (ERK1 and ERK2): slightly inhibited; also recorded: increased lapatinib sensitivity with respect to ERK1 and ERK2 phosphorylation
apoptosis (sub-G1 population) of melanoma cells harboring mutant ERBB4 compared to WT ERBB4 lines [2]: increased sub-G1 population
apoptosis (sub-G1 population) of melanoma cells harboring mutant ERBB4 compared to WT ERBB4 lines ([2]; listed as Lapatinib): markedly increased apoptosis
